Measured values: the Kinase Knowledgebase extract (Sharma et al. 2016)

Each compound was assayed against EGFR (UniProt P00533).
Chain of EGFR (P00533 whole entry, looked up): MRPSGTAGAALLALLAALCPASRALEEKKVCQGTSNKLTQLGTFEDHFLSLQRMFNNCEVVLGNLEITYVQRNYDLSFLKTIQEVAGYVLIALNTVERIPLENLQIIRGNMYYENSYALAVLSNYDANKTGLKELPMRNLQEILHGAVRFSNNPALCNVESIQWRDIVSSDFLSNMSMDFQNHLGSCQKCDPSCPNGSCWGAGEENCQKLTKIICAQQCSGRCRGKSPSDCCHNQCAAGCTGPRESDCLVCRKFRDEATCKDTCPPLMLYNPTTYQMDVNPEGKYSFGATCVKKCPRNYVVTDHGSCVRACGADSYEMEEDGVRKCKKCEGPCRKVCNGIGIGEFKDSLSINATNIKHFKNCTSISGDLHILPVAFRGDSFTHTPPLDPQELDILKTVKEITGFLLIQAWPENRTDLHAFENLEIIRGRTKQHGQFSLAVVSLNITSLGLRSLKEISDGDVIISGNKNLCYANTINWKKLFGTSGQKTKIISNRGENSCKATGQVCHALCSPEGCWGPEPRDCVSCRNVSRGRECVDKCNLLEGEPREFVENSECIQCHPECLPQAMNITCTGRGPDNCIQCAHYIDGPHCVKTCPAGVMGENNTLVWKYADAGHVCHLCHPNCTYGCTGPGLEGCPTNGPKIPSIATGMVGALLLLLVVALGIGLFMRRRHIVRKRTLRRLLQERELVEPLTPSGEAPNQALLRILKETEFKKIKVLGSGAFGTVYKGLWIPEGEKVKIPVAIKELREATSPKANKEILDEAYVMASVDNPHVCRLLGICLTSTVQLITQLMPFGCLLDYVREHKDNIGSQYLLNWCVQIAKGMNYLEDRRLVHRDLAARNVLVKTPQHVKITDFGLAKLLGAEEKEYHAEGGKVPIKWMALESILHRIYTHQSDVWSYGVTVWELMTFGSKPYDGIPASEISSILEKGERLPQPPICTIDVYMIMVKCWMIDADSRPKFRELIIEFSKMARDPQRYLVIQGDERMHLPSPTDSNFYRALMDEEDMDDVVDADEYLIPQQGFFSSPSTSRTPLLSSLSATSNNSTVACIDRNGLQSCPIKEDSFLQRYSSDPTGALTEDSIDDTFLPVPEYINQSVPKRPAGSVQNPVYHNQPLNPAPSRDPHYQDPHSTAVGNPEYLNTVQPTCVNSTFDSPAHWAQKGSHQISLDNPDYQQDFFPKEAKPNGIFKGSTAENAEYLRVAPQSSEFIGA

Row | IC50 | Compound
1 | ≤ 1000 nM | CCN(CC)CCOc1cc2ncnc(NS(=O)(=O)c3cn(C)cn3)c2cc1OC
2 | ≤ 1000 nM | CCN(CC)CCOc1cc2ncnc(NS(=O)(=O)c3ccc(OC)c(OC)c3)c2cc1OC
3 | ≤ 1000 nM | COc1cc2c(NS(=O)(=O)c3ccccc3C#N)ncnc2cc1OCCCN1CCOCC1
4 | ≤ 1000 nM | COc1cc2c(NS(=O)(=O)c3ccc(C(F)(F)F)cc3)ncnc2cc1OCCN1CCOCC1
5 | ≤ 1000 nM | CCN(CC)CCOc1cc2ncnc(NS(=O)(=O)c3c(C)noc3C)c2cc1OC
6 | ≤ 1000 nM | COc1cc2c(NS(=O)(=O)c3ccc(F)cc3)ncnc2cc1OCCN1CCN(C)CC1
7 | ≤ 1000 nM | COc1cc2c(NS(=O)(=O)c3ccc(OC(F)(F)F)cc3)ncnc2cc1OCCCN(C)C
8 | ≤ 1000 nM | COc1cc2c(NS(=O)(=O)c3ccc(Sc4ccccc4)s3)ncnc2cc1OCCCN(C)C
9 | ≤ 1000 nM | CCN(CC)CCOc1cc2ncnc(NS(=O)(=O)c3ccc(Br)cc3)c2cc1OC
10 | ≤ 1000 nM | CCN(CC)CCOc1cc2ncnc(NS(=O)(=O)c3ccc(Sc4ccccc4)s3)c2cc1OC
11 | ≤ 1000 nM | COc1ccc(OC)c(S(=O)(=O)Nc2ncnc3cc(OCCN4CCCCC4)c(OC)cc23)c1
12 | ≤ 1000 nM | COc1cc2c(NS(=O)(=O)c3ccc(F)cc3)ncnc2cc1OCCN1CCOCC1
13 | ≤ 1000 nM | COc1ccc(OC)c(S(=O)(=O)Nc2ncnc3cc(OC4CCN(C)CC4)c(OC)cc23)c1
14 | ≤ 1000 nM | CCN(CC)CCOc1cc2ncnc(NS(=O)(=O)c3cccc(Br)c3)c2cc1OC
15 | ≤ 1000 nM | COc1cc2c(NS(=O)(=O)c3ccccc3C)ncnc2cc1OCCN1CCOCC1
16 | ≤ 1000 nM | CCN(CC)CCOc1cc2ncnc(NS(=O)(=O)c3ccc(OC(F)(F)F)cc3)c2cc1OC
17 | ≤ 1000 nM | COc1cc2c(NS(=O)(=O)c3cc(Cl)cc(Cl)c3)ncnc2cc1OCCCN1CCOCC1
18 | ≤ 1000 nM | CCN(CC)CCOc1cc2ncnc(NS(=O)(=O)c3cc(Cl)cc(Cl)c3)c2cc1OC
19 | ≤ 1000 nM | COc1cc2c(NS(=O)(=O)Cc3ccccc3)ncnc2cc1OCCN1CCCCC1
20 | ≤ 1000 nM | COc1ccc(S(=O)(=O)Nc2ncnc3cc(OCCCN(C)C)c(OC)cc23)cc1
21 | ≤ 1000 nM | COc1ccc(S(=O)(=O)Nc2ncnc3cc(OCCN4CCOCC4)c(OC)cc23)cc1
22 | ≤ 1000 nM | COc1cc2c(NS(=O)(=O)c3ccc(Cl)cc3Cl)ncnc2cc1OCCCN1CCOCC1
23 | ≤ 1000 nM | COc1cc2c(NS(=O)(=O)c3ccccc3Br)ncnc2cc1OCCCN1CCOCC1
24 | ≤ 1000 nM | CCN(CC)CCOc1cc2ncnc(NS(=O)(=O)c3ccc(Cl)s3)c2cc1OC
25 | ≤ 1000 nM | COc1ccc(S(=O)(=O)Nc2ncnc3cc(OCCN4CCCCC4)c(OC)cc23)cc1

Row | IC50 | Compound
26 | ≤ 1000 nM | COc1cc2c(NS(=O)(=O)c3ccc(Sc4cccs4)s3)ncnc2cc1OCCN1CCCCC1
27 | ≤ 1000 nM | COc1cc2c(NS(=O)(=O)c3ccccc3Cl)ncnc2cc1OCCCN(C)C
28 | ≤ 1000 nM | COc1cc2c(NS(=O)(=O)c3ccc(Cl)s3)ncnc2cc1OCCN1CCOCC1
29 | ≤ 1000 nM | COc1ccc(S(=O)(=O)Nc2ncnc3cc(OCCN4CCN(C)CC4)c(OC)cc23)cc1OC
30 | ≤ 1000 nM | CCN(CC)CCOc1cc2ncnc(NS(=O)(=O)c3ccccc3Br)c2cc1OC
31 | ≤ 1000 nM | CCN(CC)CCOc1cc2ncnc(NS(=O)(=O)Cc3ccccc3)c2cc1OC
32 | ≤ 1000 nM | COc1ccc(S(=O)(=O)Nc2ncnc3cc(OCCCN4CCOCC4)c(OC)cc23)cc1
33 | ≤ 1000 nM | COc1cc2c(NS(=O)(=O)c3cc(Cl)c(Cl)s3)ncnc2cc1OCCN1CCOCC1
34 | ≤ 1000 nM | COc1cc2c(NS(=O)(=O)Cc3ccccc3)ncnc2cc1OC1CCN(C)CC1
35 | ≤ 1000 nM | COc1cc2c(NS(=O)(=O)c3ccccc3)ncnc2cc1OCCN1CCCCC1
36 | ≤ 1000 nM | CCN(CC)CCOc1cc2ncnc(NS(=O)(=O)c3ccc(Cl)cc3)c2cc1OC
37 | ≤ 1000 nM | COc1cc2c(NS(=O)(=O)c3ccccc3C)ncnc2cc1OCCN1CCCCC1
38 | ≤ 1000 nM | COc1cc2c(NS(=O)(=O)c3ccc(C)cc3)ncnc2cc1OCCCN1CCOCC1
39 | ≤ 1000 nM | COc1cc2c(NS(=O)(=O)c3cccc4cccnc34)ncnc2cc1OCCN1CCOCC1
40 | ≤ 1000 nM | COc1cc2c(NS(=O)(=O)c3cc(Cl)c(Cl)s3)ncnc2cc1OCCCN(C)C
41 | ≤ 1000 nM | COc1cc2c(NS(=O)(=O)c3ccc(C(C)(C)C)cc3)ncnc2cc1OCCCN(C)C
42 | ≤ 1000 nM | COc1cc2c(NS(=O)(=O)c3ccc4ccccc4c3)ncnc2cc1OCCN1CCCCC1
43 | ≤ 1000 nM | COc1cc2c(NS(=O)(=O)c3cccc(Cl)c3)ncnc2cc1OCCN1CCCCC1
44 | ≤ 1000 nM | COc1cc2c(NS(=O)(=O)c3ccccc3Br)ncnc2cc1OCCN1CCOCC1
45 | ≤ 1000 nM | COc1ccc(S(=O)(=O)Nc2ncnc3cc(OCCN4CCCCC4)c(OC)cc23)cc1OC
46 | ≤ 1000 nM | COc1cc2c(NS(=O)(=O)c3ccc(Cl)cc3)ncnc2cc1OCCCN1CCOCC1
47 | ≤ 1000 nM | COc1cc2c(NS(=O)(=O)c3ccccc3)ncnc2cc1OCCN1CCOCC1
48 | ≤ 1000 nM | COc1cc2c(NS(=O)(=O)c3ccc(Br)cc3)ncnc2cc1OC1CCN(C)CC1
49 | ≤ 1000 nM | COc1cc2c(NS(=O)(=O)c3ccc(Cl)s3)ncnc2cc1OCCN1CCCCC1
50 | ≤ 1000 nM | COc1cc2c(NS(=O)(=O)c3ccc(Sc4cccs4)s3)ncnc2cc1OCCN1CCOCC1

Row | IC50 | Compound
51 | ≤ 1000 nM | CCN(CC)CCOc1cc2ncnc(NS(=O)(=O)c3cc(OC)ccc3OC)c2cc1OC
52 | ≤ 1000 nM | COc1cc2c(NS(C)(=O)=O)ncnc2cc1OCCN1CCOCC1
53 | ≤ 1000 nM | COc1cc2c(NS(=O)(=O)c3ccc(F)cc3)ncnc2cc1OC1CCN(C)CC1
54 | ≤ 1000 nM | COc1cc2c(NS(=O)(=O)c3cc(Cl)cc(Cl)c3)ncnc2cc1OCCN1CCOCC1
55 | ≤ 1000 nM | COc1cc2c(NS(=O)(=O)c3ccc(OC(F)(F)F)cc3)ncnc2cc1OCCN1CCCCC1
56 | ≤ 1000 nM | COc1cc2c(NS(=O)(=O)c3ccc(Br)cc3)ncnc2cc1OCCCN(C)C
57 | ≤ 1000 nM | COc1cc2c(NS(=O)(=O)c3cc(Cl)c(Cl)s3)ncnc2cc1OCCN1CCN(C)CC1
58 | ≤ 1000 nM | COc1cc2c(NS(=O)(=O)Cc3ccccc3)ncnc2cc1OCCN1CCOCC1
59 | ≤ 1000 nM | COc1cc2c(NS(=O)(=O)c3ccc(C(C)(C)C)cc3)ncnc2cc1OCCN1CCOCC1
60 | ≤ 1000 nM | COc1cc2c(NS(=O)(=O)c3ccccc3Cl)ncnc2cc1OCCN1CCOCC1
61 | ≤ 1000 nM | COc1cc2c(NS(=O)(=O)c3cc(Cl)cc(Cl)c3)ncnc2cc1OCCCN(C)C
62 | ≤ 1000 nM | COc1cc2c(NS(=O)(=O)c3cccc(Cl)c3Cl)ncnc2cc1OCCN1CCOCC1
63 | ≤ 1000 nM | COc1ccc(S(=O)(=O)Nc2ncnc3cc(OCCN4CCOCC4)c(OC)cc23)cc1OC
64 | ≤ 1000 nM | CCN(CC)CCOc1cc2ncnc(NS(=O)(=O)c3ccc(F)cc3)c2cc1OC
65 | ≤ 1000 nM | COc1cc2c(NS(=O)(=O)c3sc(C)nc3C)ncnc2cc1OCCN1CCOCC1
66 | ≤ 1000 nM | COc1ccc(S(=O)(=O)Nc2ncnc3cc(OCCN4CCN(C)CC4)c(OC)cc23)cc1
67 | ≤ 1000 nM | COc1cc2c(NS(=O)(=O)c3ccc4ccccc4c3)ncnc2cc1OCCCN(C)C
68 | ≤ 1000 nM | COc1cc2c(NS(=O)(=O)c3ccccc3Br)ncnc2cc1OC1CCN(C)CC1
69 | ≤ 1000 nM | COc1cc2c(NS(=O)(=O)c3ccc(Sc4cccs4)s3)ncnc2cc1OC1CCN(C)CC1
70 | ≤ 1000 nM | COc1cc2c(NS(=O)(=O)c3ccc(Cl)cc3)ncnc2cc1OCCN1CCCCC1
71 | ≤ 1000 nM | COc1cc2c(NS(=O)(=O)Cc3ccccc3)ncnc2cc1OCCN1CCN(C)CC1
72 | ≤ 1000 nM | COc1cc2c(NS(=O)(=O)c3ccccc3Cl)ncnc2cc1OCCCN1CCOCC1
73 | ≤ 1000 nM | CCN(CC)CCOc1cc2ncnc(NS(=O)(=O)c3cc(Cl)c(Cl)s3)c2cc1OC
74 | ≤ 1000 nM | COc1cc2c(NS(=O)(=O)c3ccc(Sc4ccccc4)s3)ncnc2cc1OC1CCN(C)CC1
75 | ≤ 1000 nM | COc1cc2c(NS(=O)(=O)c3ccccc3)ncnc2cc1OC1CCN(C)CC1

Row | IC50 | Compound
76 | ≤ 1000 nM | COc1cc2c(NS(=O)(=O)c3cccc4cccnc34)ncnc2cc1OCCCN(C)C
77 | ≤ 1000 nM | COc1cc2c(NS(=O)(=O)c3ccc(Cl)s3)ncnc2cc1OCCN1CCN(C)CC1
78 | ≤ 1000 nM | CCN(CC)CCOc1cc2ncnc(NS(=O)(=O)c3ccccc3Cl)c2cc1OC
79 | ≤ 1000 nM | COc1cc2c(NS(=O)(=O)c3ccc(F)cc3)ncnc2cc1OCCCN(C)C
80 | ≤ 1000 nM | COc1cc2c(NS(=O)(=O)c3cc(Cl)cc(Cl)c3)ncnc2cc1OCCN1CCN(C)CC1
81 | ≤ 1000 nM | COc1cc2c(NS(=O)(=O)c3ccc(C)cc3)ncnc2cc1OCCCN(C)C
82 | ≤ 1000 nM | COc1cc2c(NS(=O)(=O)c3ccccc3)ncnc2cc1OCCCN1CCOCC1
83 | ≤ 1000 nM | CCN(CC)CCOc1cc2ncnc(NS(C)(=O)=O)c2cc1OC
84 | ≤ 1000 nM | COc1cc2c(NS(=O)(=O)c3cccc(Br)c3)ncnc2cc1OCCN1CCOCC1
85 | ≤ 1000 nM | COc1cc2c(NS(=O)(=O)c3c(C)noc3C)ncnc2cc1OCCN1CCOCC1
86 | ≤ 1000 nM | COc1cc2c(NS(=O)(=O)c3c(C)cc(C)cc3C)ncnc2cc1OCCN1CCOCC1
87 | ≤ 1000 nM | CCN(CC)CCOc1cc2ncnc(NS(=O)(=O)c3cccc4cccnc34)c2cc1OC
88 | ≤ 1000 nM | COc1cc2c(NS(=O)(=O)c3c(C)cc(C)cc3C)ncnc2cc1OCCCN(C)C
89 | ≤ 1000 nM | COc1ccc(OC)c(S(=O)(=O)Nc2ncnc3cc(OCCCN(C)C)c(OC)cc23)c1
90 | ≤ 1000 nM | COc1cc2c(NS(C)(=O)=O)ncnc2cc1OCCN1CCN(C)CC1
91 | ≤ 1000 nM | CCN(CC)CCOc1cc2ncnc(NS(=O)(=O)c3cccc(Cl)c3)c2cc1OC
92 | ≤ 1000 nM | COc1ccc(S(=O)(=O)Nc2ncnc3cc(OCCCN(C)C)c(OC)cc23)cc1OC
93 | ≤ 1000 nM | COc1cc2c(NS(=O)(=O)c3ccccc3Br)ncnc2cc1OCCCN(C)C
94 | ≤ 1000 nM | COc1cc2c(NS(=O)(=O)c3ccccc3Br)ncnc2cc1OCCN1CCCCC1
95 | ≤ 1000 nM | COc1ccc(S(=O)(=O)Nc2ncnc3cc(OC4CCN(C)CC4)c(OC)cc23)cc1
96 | ≤ 1000 nM | COc1cc2c(NS(=O)(=O)c3ccc(Cl)s3)ncnc2cc1OCCCN(C)C
97 | ≤ 1000 nM | COc1cc2c(NS(=O)(=O)c3ccc(Cl)cc3)ncnc2cc1OC1CCN(C)CC1
98 | ≤ 1000 nM | COc1cc2c(NS(=O)(=O)c3ccccc3)ncnc2cc1OCCN1CCN(C)CC1
99 | ≤ 1000 nM | COc1cc2c(NS(=O)(=O)c3ccc(C(C)(C)C)cc3)ncnc2cc1OCCN1CCN(C)CC1
100 | ≤ 1000 nM | COc1cc2c(NS(=O)(=O)c3ccc(Cl)cc3)ncnc2cc1OCCN1CCOCC1
